According to patent US8399494B2, “2,5-disubstituted phenyl carboxamide orexin receptor antagonists” (Merck Sharp & Dohme Corp., priority 2008, dated 2013):

Target: T1, OX2R (Homo sapiens, UniProt O43614)
T1 construct: expressed in transfected cells; host or cells: CHO cells (membranes)
T1 sequence (O43614 1-444): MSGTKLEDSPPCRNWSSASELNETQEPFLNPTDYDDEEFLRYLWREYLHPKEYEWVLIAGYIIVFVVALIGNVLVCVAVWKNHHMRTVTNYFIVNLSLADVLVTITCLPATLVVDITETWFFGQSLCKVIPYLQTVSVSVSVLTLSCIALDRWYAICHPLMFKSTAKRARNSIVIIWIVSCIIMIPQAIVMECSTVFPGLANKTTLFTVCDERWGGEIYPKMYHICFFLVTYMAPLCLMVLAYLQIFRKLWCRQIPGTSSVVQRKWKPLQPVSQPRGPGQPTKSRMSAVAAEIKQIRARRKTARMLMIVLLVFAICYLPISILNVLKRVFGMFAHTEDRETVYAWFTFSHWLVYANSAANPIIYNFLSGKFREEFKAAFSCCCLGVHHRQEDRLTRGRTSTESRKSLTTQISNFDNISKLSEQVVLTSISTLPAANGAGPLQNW
Assay: radioligand binding assay, OX2 receptor
Settings: membranes prepared from CHO cells expressing OX2 receptor

| Ki | SMILES |
| --- | --- |
| 0.12 nM | COc1ccc(CNC(=O)c2cc(-c3cc(Cl)cc(Cl)c3)ccc2-c2cccnc2)cc1OC [1-6, 3′,5′-dichloro-N-(3,4-dimethoxybenzyl)-4-pyridin-3-ylbiphenyl-3-carboxamide] |
| 1.3 nM | CCc1nc(CNC(=O)c2cc(-c3cncc(C)c3)ccc2-c2cnn(C)c2)ccc1OC [1-17, N-[(6-ethyl-5-methoxypyridin-2-yl)methyl]-2-(1-methyl-1H-pyrazol-4-yl)-5-(5-methylpyridin-3-yl)benzamide] |
